From the supplement of paper PMC10307832

Tests used:
Test in all cases: relative viability (nuclei count vs DMSO), 5 days (fraction); higher = more cells survive
Tosedostat + Bortezomib = compound: CC(C)C[C@@H](C(=O)N[C@H](C(=O)OC1CCCC1)c1ccccc1)[C@H](O)C(=O)NO [Tosedostat] + CC(C)C[C@H](NC(=O)[C@H](Cc1ccccc1)NC(=O)c1cnccn1)B(O)O [Bortezomib] (partner 0.002 µM)
Outline: (§1)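 Each reported value is a median over duplicate plates. It expresses relative viability: treated-well nuclei count divided by vehicle-well nuclei count. Lung cancer cell lines in 1536-well plates were dosed by pin tool a day after seeding, alone with one drug or with a fixed anchor-drug dose plus five library-drug doses (not always all listed) in √10 steps, and nuclei were counted after 5 days.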

Tosedostat + Pictilisib = compound: CC(C)C[C@@H](C(=O)N[C@H](C(=O)OC1CCCC1)c1ccccc1)[C@H](O)C(=O)NO [Tosedostat] + CS(=O)(=O)N1CCN(Cc2cc3nc(-c4cccc5[nH]ncc45)nc(N4CCOCC4)c3s2)CC1 [Pictilisib] (partner 1 µM)
Outline: as §1

Tosedostat + Olaparib = compound: CC(C)C[C@@H](C(=O)N[C@H](C(=O)OC1CCCC1)c1ccccc1)[C@H](O)C(=O)NO [Tosedostat] + O=C(c1cc(Cc2n[nH]c(=O)c3ccccc23)ccc1F)N1CCN(C(=O)C2CC2)CC1 [Olaparib] (partner 8 µM)
Outline: as §1

[1] = compound: CC1=NN=C(O1)C2=NN=C(C=C2)N3CCC(CC3)OC4=C(C=CC(=C4)F)Cl + Cc1nc(Nc2ncc(C(=O)Nc3c(C)cccc3Cl)s2)cc(N2CCN(CCO)CC2)n1 [Dasatinib] (partner 0.075 µM)
Outline: as §1

Row | Cell Line | relative viability (Tosedostat + Bortezomib; first compound 0.02 µM) | relative viability (Tosedostat + Bortezomib; first compound 0.06325 µM) | relative viability (Tosedostat + Bortezomib; first compound 0.2 µM) | relative viability (Tosedostat + Bortezomib; first compound 0.6325 µM) | relative viability (Tosedostat + Bortezomib; first compound 2 µM) | relative viability (Tosedostat + Pictilisib; first compound 0.02 µM) | relative viability (Tosedostat + Pictilisib; first compound 0.06325 µM) | relative viability (Tosedostat + Pictilisib; first compound 0.2 µM) | relative viability (Tosedostat + Pictilisib; first compound 0.6325 µM) | relative viability (Tosedostat + Pictilisib; first compound 2 µM) | relative viability (Tosedostat + Olaparib; first compound 0.02 µM) | relative viability (Tosedostat + Olaparib; first compound 0.06325 µM) | relative viability (Tosedostat + Olaparib; first compound 0.2 µM) | relative viability (Tosedostat + Olaparib; first compound 0.6325 µM) | relative viability (Tosedostat + Olaparib; first compound 2 µM) | relative viability ([1]; first compound 0.253 µM) | relative viability ([1]; first compound 0.8 µM) | relative viability ([1]; first compound 2.53 µM) | relative viability ([1]; first compound 8 µM)
1 | 201T | 1.1 | 1.08 | 1.14 | 1.14 | 1.21 | 0.669 | 0.682 | 0.788 | 0.78 | 0.762 | 0.824 | 0.913 | 0.874 | 0.896 | 0.862 | 0.38 | 0.45 | 0.409 | 0.433
2 | A549 | – | – | – | – | – | 0.606 | 0.513 | 0.495 | 0.469 | 0.521 | 0.42 | 0.247 | 0.359 | 0.26 | 0.306 | – | – | – | –
3 | A-427 | 1.02 | 0.916 | 1.06 | 1.01 | 0.879 | 0.736 | 0.643 | 0.727 | 0.662 | 0.564 | 0.763 | 0.674 | 0.708 | 0.757 | 0.747 | 0.654 | – | 0.669 | 0.63
4 | Calu-6 | 1.13 | 0.932 | 0.943 | 0.851 | 0.666 | 0.975 | 0.87 | 0.778 | 0.757 | 0.651 | 0.631 | 0.494 | 0.5 | 0.439 | 0.326 | – | – | – | –
5 | EBC-1 | 0.538 | 0.516 | 0.505 | 0.405 | 0.334 | 0.361 | 0.417 | 0.232 | 0.266 | 0.281 | 0.661 | 0.637 | 0.546 | 0.442 | 0.409 | – | – | – | –
6 | HCC-44 | 0.886 | 0.883 | 0.937 | 0.793 | 0.459 | 0.666 | 0.689 | 0.527 | 0.695 | 0.378 | 0.965 | 0.984 | 0.97 | 0.949 | 0.916 | – | – | – | –
7 | IA-LM | 0.854 | 0.731 | 0.814 | 0.848 | 0.735 | 0.447 | 0.308 | 0.36 | 0.302 | 0.403 | 0.839 | 0.869 | 0.655 | 0.814 | 0.662 | – | – | – | –
8 | LK-2 | – | – | – | – | – | 0.613 | 0.583 | 0.576 | 0.606 | 0.812 | 0.615 | 0.798 | 0.583 | 0.592 | 0.437 | 0.393 | 0.458 | 0.504 | 0.428
9 | NCI-H358 | – | – | – | – | – | 0.336 | 0.366 | 0.287 | 0.239 | 0.327 | 0.547 | 0.679 | 0.438 | 0.229 | 0.211 | 0.199 | 0.196 | 0.19 | 0.188
10 | NCI-H522 | – | – | – | – | – | – | – | – | – | – | 0.637 | 0.644 | 0.658 | 0.788 | 0.637 | 0.856 | 0.842 | 0.974 | 0.938
11 | NCI-H1299 | 1.05 | 1 | 1.01 | 0.965 | 0.893 | 0.813 | 0.77 | 0.646 | 0.485 | 0.316 | 1.04 | 0.947 | 0.954 | 0.864 | 0.835 | – | – | – | –
12 | NCI-H1395 | – | – | – | – | – | 0.627 | 0.799 | 0.601 | 0.606 | 0.567 | 0.461 | 0.463 | 0.469 | 0.412 | 0.402 | 0.448 | 0.405 | 0.401 | 0.427
13 | NCI-H1563 | 0.924 | 0.818 | 0.943 | 0.948 | 0.8 | 0.636 | 0.657 | 0.708 | 0.712 | 0.616 | – | – | – | – | – | 0.465 | 0.48 | 0.55 | 0.452
14 | NCI-H1648 | – | – | – | – | – | – | – | – | – | – | 0.799 | 0.644 | 0.764 | 0.875 | 0.587 | – | – | – | –
15 | NCI-H1703 | 0.447 | 0.297 | 0.235 | 0.221 | 0.301 | 0.229 | 0.253 | 0.268 | 0.222 | 0.245 | 0.45 | 0.373 | 0.293 | 0.29 | 0.311 | – | – | – | –
16 | NCI-H1793 | – | – | – | – | – | 0.484 | 0.31 | 0.507 | 0.403 | 0.329 | 0.884 | 0.879 | 0.763 | 0.698 | 0.669 | 0.378 | 0.342 | 0.448 | 0.371
17 | NCI-H1944 | – | – | – | – | – | 0.368 | 0.37 | 0.363 | 0.352 | 0.356 | 0.429 | 0.427 | 0.414 | 0.355 | 0.371 | 0.212 | 0.23 | 0.224 | 0.264
18 | NCI-H2170 | – | – | – | – | – | 0.31 | 0.33 | 0.385 | 0.291 | 0.289 | 0.579 | 0.513 | 0.686 | 0.574 | 0.613 | 0.351 | 0.332 | 0.374 | 0.316
19 | NCI-H2342 | – | – | – | – | – | – | – | – | – | – | 0.401 | 0.392 | 0.444 | 0.295 | 0.373 | 0.286 | 0.293 | 0.325 | 0.274
20 | SK-MES-1 | – | – | – | – | – | 0.382 | 0.317 | 0.381 | 0.315 | 0.311 | 0.719 | 0.672 | 0.698 | 0.601 | 0.404 | 0.359 | 0.384 | 0.419 | 0.42
21 | SW 900 | – | – | – | – | – | – | – | – | – | – | 0.784 | 1.02 | 0.983 | 0.752 | 0.629 | – | – | 0.642 | 0.542
